One molecule from patent US20240307426A1, “USE OF SGLT-2 INHIBITORS FOR THE PREVENTION AND/OR TREATMENT OF RENAL DISEASES IN NON-HUMAN MAMMALS” (BOEHRINGER INGELHEIM VETMEDICA GMBH, priority 2021, published 2024) can be followed below.

The subject of assay [1] is client owned dogs with CKD (IRIS stage 3). Kind of assay: Exploratory clinical field study - dogs (Example 2). As to conditions: CKD IRIS stage 3, 0.3 mg/kg bodyweight orally once daily. In kind it is in vivo, dog. The procedure:
(§1) Client owned patients diagnosed with CKD (IRIS stage 3) diagnosed via physical examination and biomarker levels are orally treated once daily with velagliflozin 0.3 mg/kg bodyweight. During the study period the body weight, body condition score, biomarker levels (creatinine and SDMA), proteinuria, presence of concomitant conditions and need for further medication are examined on regular basis during the visits at the site by the investigator. The parameters examined are creatinine and SDMA levels, proteinuria, blood pressure and hydration status. Additionally, variables as the delayed onset of renal failure, survival time of the dog patients, IRiS stage progression and renal related mortality and/or morbidity are observed.

Assay [2] relates to client owned cats with CKD (IRIS stage 3). Kind of assay: Exploratory clinical field study - cats (Example 1). Format: in vivo, cat. As to conditions: CKD IRIS stage 3, 0.1 mg/kg bodyweight orally once daily. The procedure: as §1, with “0.1” for “0.3”, “SDMA),” for “SDMA), proteinuria,”, “pressure, quality of life,” for “pressure”, “cat” for “dog”
Assay [3] deals with client owned dogs with CKD. Kind of assay: Exploratory clinical field trial in client owned dogs with CKD (Example 4). In kind it is in vivo, dog. As to conditions: 0.05 mg/kg bodyweight orally once daily. Here is the method:
as §1, with “CKD” for “CKD (IRIS stage 3)”, “0.05” for “0.3”, “IRIS” for “IRiS”

Structures are written as SMILES.

Take `N#Cc1ccc([C@@H]2O[C@H](CO)[C@@H](O)[C@H](O)[C@H]2O)cc1Cc1ccc(C2CC2)cc1` [velagliflozin, Velagliflozin]: the “effect on renal function” value in assay [1], in assay [2] and in assay [3] was “beneficial effect on renal function” throughout. Further, the “progression of the disease” value in assay [1], in assay [2] and in assay [3] was “delay in progression of the disease” throughout.
